{"source": "patent US20120328569A1", "about": "“INHIBITORS OF HEPATITIS C VIRUS NS5B POLYMERASE” (priority 2010, published 2012)"}
{"tested_on": "HCV genotype 1b replicon", "assay": "HCV replicon assay, cell ELISA with antibody to replicon-encoded NS3/4A (genotype 1b replicon)", "assay_type": "cell-based, hepatitis C virus", "details": "Hepatitis C virus, 96 h, read-out: 1b IC50(nM), HCV genotype 1b replicon; 96 hours incubation; NS3/4A cell ELISA", "in_short": "(§1)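 Replicon-harbouring cells carrying neomycin phosphotransferase were incubated 96 h with a compound dilution series without G418. Replication was quantified indirectly by a cell ELISA detecting replicon-encoded NS3/4A. IC50 values were calculated relative to DMSO control with a four-parameter fit.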", "units": {"IC50": "nM"}}
{"smiles": "CNC(=O)c1c(-c2ccc(F)cc2)oc2cc(N(C)S(C)(=O)=O)c(-c3cc(F)cc(-c4nc5ncc(F)cc5o4)c3)cc12", "note": "[Example 862]", "IC50": 1.3}
{"smiles": "CNC(=O)c1c(-c2ccc(F)cc2)oc2cc(N(C)S(C)(=O)=O)c(-c3cc4c(c(-c5nc6c(F)cccc6o5)c3)OCCO4)cc12", "note": "[Example 436]", "IC50": 4.37}
{"smiles": "CNC(=O)c1c(-c2ccc(F)cc2)oc2cc(N(C)S(C)(=O)=O)c(-c3ccc(OC)c(-c4cc5ccc(F)cc5s4)c3)cc12", "note": "[Example 687]", "IC50": 27.3}
{"smiles": "CNC(=O)c1c(-c2ccc(F)cc2)oc2cc(N(CCC(O)CO)S(C)(=O)=O)c(-c3ccc(OC)c(-c4nc5c(F)cccc5o4)c3)cc12", "note": "(centres unmarked) [Example 784]", "IC50": 3.61}
{"smiles": "CNC(=O)c1c(-c2ccc(F)cc2)oc2cc(N(C)S(C)(=O)=O)c(-c3ccc(CC#N)c(-c4nc5c(F)cccc5o4)c3)cc12", "note": "[Example 429]", "IC50": 4.91}
{"smiles": "CNC(=O)c1c(-c2ccc(F)cc2)oc2cc(N(C)S(C)(=O)=O)c(-c3ccc(OC)c(-c4nc5c(C(=O)NC)cccc5o4)c3)cc12", "note": "[Example 637]", "IC50": 4.03}
{"tested_on": "HCV genotype 1b replicon", "assay": "HCV replicon assay, cell ELISA with antibody to replicon-encoded NS3/4A (genotype 1b replicon)", "assay_type": "cell-based, hepatitis C virus", "details": "Hepatitis C virus, 96 h, read-out: Replicon 1b IC50 (nM), HCV genotype 1b replicon cells, 96 hours incubation, NS3/4A ELISA readout", "in_short": "as §1", "units": {"IC50": "nM"}}
{"smiles": "CNC(=O)c1c(-c2ccc(F)cc2)oc2cc(N(CC(C)O)S(C)(=O)=O)c(-c3ccccc3)cc12", "note": "(centres unmarked) [Example 29, 2-(4-fluorophenyl)-6-[(2-hydroxypropyl) (methylsulfonyl)amino]-N-methyl-5-phenyl-1-benzofuran-3-carboxamidc]", "IC50": 412}
{"smiles": "CNC(=O)c1c(-c2ccc(F)cc2)oc2cc(N(CCNCc3ccccc3)S(C)(=O)=O)c(-c3ccccc3)cc12", "note": "[Example 123, 6-{[2-(benzylamino)ethyl](methylsulfonyl)amino}-2-(4-fluorophenyl)-N-methyl-5-phenyl-1-benzofuran-3-carboxamide]", "IC50": 111}
{"smiles": "CNC(=O)c1c(-c2ccc(F)cc2)oc2cc(N(CCCC#N)S(C)(=O)=O)c(-c3cccc(-c4nc5ncccc5o4)c3)cc12", "note": "[Compound 393]", "IC50": 1.2}
{"smiles": "CNC(=O)c1c(-c2ccc(F)cc2)oc2cc(N(C)S(C)(=O)=O)c(-c3cccc(-c4nc5cc(F)ccc5s4)c3)cc12", "note": "[Example 292]", "IC50": 5.9}
{"smiles": "CNC(=O)c1c(-c2ccc(F)cc2)oc2cc(N(C)S(C)(=O)=O)c(-c3ccc(Cl)c(-c4nc5cccnc5o4)c3)cc12", "note": "[Example 228]", "IC50": 3.2}
{"smiles": "CNC(=O)c1c(-c2ccc(F)cc2)oc2cc(N(C)S(C)(=O)=O)c(-c3cccc(-c4nc5ccc(NC(=O)[C@@H]6CCCN6C(=O)OC(C)(C)C)cc5o4)c3)cc12", "note": "[Example 285]", "IC50": 10.2}
{"smiles": "CNC(=O)c1c(-c2ccc(F)cc2)oc2cc(N(C)S(C)(=O)=O)c(-c3cccc(-c4nc5ccc(=O)[nH]c5s4)c3)cc12", "note": "[Example 252]", "IC50": 78.2}
{"smiles": "CNC(=O)c1c(-c2ccc(F)cc2)oc2cc(N(C)S(C)(=O)=O)c(-c3cccc(-c4cc5cccnc5[nH]4)c3)cc12", "note": "[Compound 369]", "IC50": 2.7}
{"smiles": "CONC(=O)c1c(-c2ccc(F)cc2)oc2cc(N(C)S(C)(=O)=O)c(-c3ccc(C)cc3)cc12", "note": "[Example 93, 2-(4-fluorophenyl)-N-methoxy-6-[methyl (methylsulfonyl)amino]-5-(4-methylphenyl)-1-benzofuran-3-carboxamide]", "IC50": 54}
{"smiles": "CNC(=O)c1c(-c2ccc(F)cc2)oc2cc(N(C)S(C)(=O)=O)c(-c3cc(-c4nc5cccnc5s4)ccc3OC)cc12", "note": "[Example 250]", "IC50": 5.1}
{"smiles": "CNC(=O)c1c(-c2ccc(F)cc2)oc2cc(N(C)S(C)(=O)=O)c(-c3ccc(OC)c(-c4nc5cccc(C)c5o4)c3)cc12", "note": "[Example 192]", "IC50": 1.9}
{"smiles": "CNC(=O)c1c(-c2ccc(F)cc2)oc2cc(N(C)S(C)(=O)=O)c(-c3cc(OC)cc(-c4nc5ccc(OC)nc5[nH]4)c3)cc12", "note": "[Example 315]", "IC50": 4.5}
{"smiles": "CNC(=O)c1c(-c2ccc(F)cc2)oc2cc(N(C)S(C)(=O)=O)c(-c3cccc(-c4[nH]c5ccccc5c4Br)c3)cc12", "note": "[Example 382, 5-(3-(3-bromo-1H-indol-2-yl)phenyl)-2-(4-fluorophenyl)-N-methyl-6-(N-methylmethylsulfonamido)benzofuran-3-carboxamide]", "IC50": 8.9}
{"smiles": "CNC(=O)c1c(-c2ccc(F)cc2)oc2cc(N(C)S(C)(=O)=O)c(-c3ccccc3N(C)S(C)(=O)=O)cc12", "note": "[Example 83, 2-(4-fluorophenyl)-N-methyl-6-[methyl (methylsulfonyl)amino]-5-{2-[methyl (methylsulfonyl)amino]phenyl}-1-benzofuran-3-carboxamide]", "IC50": 232}
